Assay type in all cases: cell-based
In test [1] the test system is MDA-MB-231 breast cancer cells. The test is described as follows: Haptotactic cell migration toward fibronectin (modified Boyden chamber). The note with it: MDA-MB-231 cells, 4 hours. An excerpt:
(§1) One of the well-established functions of Eph receptors is the ligand-dependent repulsive guidance of cell migration. As a ligand-mimicking agonist for EphA2, doxazosin is expected to activate EphA2 on tumor cells and repulse migrating tumor cells in vitro. To test this possibility, we first investigated the effects of doxazosin on integrin-mediated haptotactic cell migration toward fibronectin in a modified Boyden chamber cell migration assay. […] The inhibitory effects were observed when doxazosin was presented either in the bottom chamber, or in both top and bottom chambers in the Transwell assay system. […] Therefore, doxazosin can recapitulate a key function attributed to its native ligands, i.e., negative regulation of cell migration.

The test system of test [2] is A172-A2 glioma cells. The test is described as above. The note with it: 4 hours.
Excerpt: as §1

In test [3] the target is T1, EphA2 (Homo sapiens, UniProt P29317). Kind of test: EphA2 receptor internalization in U373-A2 glioma cells (immunofluorescence). The note with it: 60 min, 50 μM DZ or 1 μg/ml ephrin-A1-Fc. The arrangement: expressed in transfected cells; host or cells: MDA-MB-231 (MDA-231-A2), HEK 293 (HEK 293-A2), A172 (A172-A2), U373 (U373-A2). On the procedure:
Cells were plated in 24-well dishes at a density of 100,000 cells/well and grown for 24 hours prior to stimulation with appropriate compounds and ephrins for the given amounts of time. Compounds were prepared in DMSO at 500 times the final concentrations and 0.2% DMSO was used as vehicle control. Following treatment, cells were lysed directly in SDS Gel Loading Buffer and immunoblotted as described previously. Immunoprecipitation and immunofluorescence staining was performed as described. For immunoprecipitation, 300,000 cells/well were plated in 6-well dishes and lysed in modified RIPA Buffer (20 mM Tris-HCl pH 7.4, 20 mM NaF, 150 mM NaCl, 10% glycerol, 0.1% SDS, 0.5% DCA, 2 mM EDTA, 1% Triton X-100) following treatment. Either […] of ephrin-A1-Fc, or […] of EphA2 mouse monoclonal antibody (Clone D7, Millipore) were used, and mouse IgG was used as a negative control for EphA2 IP.
Similar to other receptor tyrosine kinases, activation of the EphA2 receptor by its ligand, ephrin-A1, results in receptor internalization and eventual degradation. […] This was first performed using the U373 glioma cell line engineered to overexpress EphA2.

Test [4] concerns the target T1, EphA2. Kind of test: EphA2 activation in MDA-231-A2 cells (pEphA/B immunoblot, EphA2 immunoprecipitation). Also on record: expressed in transfected cells; host or cells: MDA-MB-231 (MDA-231-A2), HEK 293 (HEK 293-A2), A172 (A172-A2), U373 (U373-A2). How it is done:
Cells were plated in 24-well dishes at a density of 100,000 cells/well and grown for 24 hours prior to stimulation with appropriate compounds and ephrins for the given amounts of time. Compounds were prepared in DMSO at 500 times the final concentrations and 0.2% DMSO was used as vehicle control. Following treatment, cells were lysed directly in SDS Gel Loading Buffer and immunoblotted as described previously. Immunoprecipitation and immunofluorescence staining was performed as described. For immunoprecipitation, 300,000 cells/well were plated in 6-well dishes and lysed in modified RIPA Buffer (20 mM Tris-HCl pH 7.4, 20 mM NaF, 150 mM NaCl, 10% glycerol, 0.1% SDS, 0.5% DCA, 2 mM EDTA, 1% Triton X-100) following treatment. Either […] of ephrin-A1-Fc, or […] of EphA2 mouse monoclonal antibody (Clone D7, Millipore) were used, and mouse IgG was used as a negative control for EphA2 IP. To identify small molecule agonists for EphA2, we took a structure-based in silico screening approach. […] This notion was confirmed recently by determination of the crystal structure of the EphA2/ephrin-A1 complex (FIG. 1B). The size falls in the range of common drugs, making EphA2 LBD a desirable target for drug discovery. Toward this end, we initiated in silico screening to search for small molecules that interact favorably with the ligand-binding pocket of EphA2 derived from molecular modeling before the crystal structure became available. Multiple conformations for each structure were generated with OMEGA (OpenEye) and each conformation was docked individually using DOCK. Our initial screening of over 750,000 compounds identified a number of small molecules that could potentially interact with the ligand-binding pocket. The commercially available top-scoring compounds were screened for their ability to induce EphA2 activation in MDAMB-231 breast cancer cells. Because MDA-MB-231 cells express endogenous EphA2 as well as other Eph receptors, including EphA1, we overexpressed EphA2 in order to minimize the contribution from other Eph receptors in our analysis. […] Total cell lysates were probed with a previously described antibody that recognizes the activated Eph receptors.
Background: In western blotting, separated proteins are transferred to a membrane and probed.

Setting [5] is: MDA-231-A2 cells, single 50 μM dose.

T1 sequence (P29317 24-976): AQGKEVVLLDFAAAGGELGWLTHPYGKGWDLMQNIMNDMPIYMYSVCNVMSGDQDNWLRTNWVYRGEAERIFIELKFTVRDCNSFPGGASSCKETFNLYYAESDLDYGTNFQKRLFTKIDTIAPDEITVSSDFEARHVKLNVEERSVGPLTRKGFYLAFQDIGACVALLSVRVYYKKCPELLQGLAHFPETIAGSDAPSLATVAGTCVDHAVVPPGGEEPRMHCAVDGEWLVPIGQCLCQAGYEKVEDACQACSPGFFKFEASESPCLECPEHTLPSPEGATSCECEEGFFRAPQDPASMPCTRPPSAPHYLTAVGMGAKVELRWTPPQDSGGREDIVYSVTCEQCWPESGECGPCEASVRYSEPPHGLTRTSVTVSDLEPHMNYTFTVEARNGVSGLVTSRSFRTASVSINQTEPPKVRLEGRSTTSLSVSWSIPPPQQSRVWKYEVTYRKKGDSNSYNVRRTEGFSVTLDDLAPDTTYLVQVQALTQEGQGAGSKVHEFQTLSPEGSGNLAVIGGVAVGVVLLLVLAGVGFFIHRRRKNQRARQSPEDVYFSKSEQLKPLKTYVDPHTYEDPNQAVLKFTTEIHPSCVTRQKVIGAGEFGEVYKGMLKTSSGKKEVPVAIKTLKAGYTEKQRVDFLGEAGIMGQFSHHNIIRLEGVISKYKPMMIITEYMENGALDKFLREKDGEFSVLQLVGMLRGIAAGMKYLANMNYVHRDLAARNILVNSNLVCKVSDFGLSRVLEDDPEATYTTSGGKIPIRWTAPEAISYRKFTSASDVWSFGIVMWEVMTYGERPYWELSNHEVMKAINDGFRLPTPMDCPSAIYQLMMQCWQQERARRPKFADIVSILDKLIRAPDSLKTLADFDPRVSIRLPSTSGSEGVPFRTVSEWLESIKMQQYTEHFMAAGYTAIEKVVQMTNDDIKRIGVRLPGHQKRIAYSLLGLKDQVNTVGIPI

On to `COc1cc2nc(N3CCN(C(=O)C4COc5ccccc5O4)CC3)nc(N)c2cc1OC` (stereo not drawn) [doxazosin], for which, in test [1], the “haptotactic cell migration toward fibronectin” value was “dose-dependent inhibition of cell migration”. Also, the “haptotactic cell migration toward fibronectin” value in test [2] is listed as “dose-dependent inhibition of cell migration”. The EphA2 internalization entry in test [3] is recorded as “significant EphA2 internalization”. Further, the “EphA2 activation after phenoxybenzamine pretreatment versus no pretreatment” value in test [4] (MDA-231-A2 cells pretreated with 1 μM phenoxybenzamine, then 1 hour treatment) is “No difference in EphA2 activation”. For the same compound, in test [4] (MDA-231-A2 cells, compounds at 50 µM, 30 minutes), the “EphA2 activation, screening of top-scoring compounds” value is recorded as “activated EphA2 to the greatest extent”. For the same compound, the “EphA2 level after treatment” value in test [4] (MDA-231-A2 cells, high doses) is recorded as “degradation of EphA2”. Besides, in test [4] (MDA-231-A2 cells, multiple doses, 30 minutes), the “EphA2 activation, dose-response” value was “dose-dependent manner”. For the same compound, in test [4] (setting [5]), the “earliest time of significant EphA2 activation” value turned out to be 5 min and the “time of peak EphA2 activation” value is “around 30 min”.
